Source: US20200360331A1, “COMPOSITIONS COMPRISING 15-HEPE AND/OR 15-HETrE AND METHODS OF TREATING OR PREVENTING CARDIOMETABOLIC DISEASE, METABOLIC SYNDROME, AND/OR RELATED DISEASES” (Afimmune Limited, priority 2019, published 2020)

Tests used:
[1] = tested on: EGFR (epidermal growth factor receptor); experiment: Sucrose density gradient analysis in Mv1Lu cells, EGFR; type: cell-based, mink; settings: 100 μM, 0, 1, 4 and 24 hours
Procedure: (§1) Sucrose gradient ultracentrifugation and confocal microscopy were used to identify 15-HEPE induced microdomain translocation of TGF-β receptors by sucrose. Sucrose density gradient analysis of TGF-β receptors was conducted in the plasma membranes of Mv1Lu cells (mink lung epithelial cell) treated with 100 μM of 15-HEPE and an equal volume of DMSO (dimethyl sulfoxide) at 37° C. for 0, 1, 4, and 24 hours, and the cell lysates from these treated cells were subjected to sucrose density gradient ultracentrifugation. The sucrose gradient fractions were then analyzed by Western blot analysis using anti-TβR-I (type I TGF-β receptor), anti-TβR-II (type II TGF-β receptor), anti-TβR-III (type III TGF-β receptor, betaglycan), anti-EGFR (epidermal growth factor receptor), and anti-caveolin-1 antibodies. The lipid raft/caveolae, and non-lipid raft microdomain localization of TβR-I, TβR-II, TβR-III, EGFR and caveolin-1 in the plasma membrane of untreated cells or cells treated with 15-HEPE were assessed to determine the effects of 15-HEPE on the membrane microdomain localization of the TGF-β receptors. […]

NAFLD patients [2] = experiment: Phase IIa NAFLD study: lipid profile; type: in vivo, human; settings: for Triglycerides (median placebo-corrected % change from baseline): 2 g
Text: (§2) Exploratory analysis: The exploratory analysis included analysis of lipid and metabolic parameters including total cholesterol, triglycerides, very low-density lipoprotein cholesterol (VLDL-C), low density lipoprotein cholesterol (LDL-C), high density lipoprotein cholesterol (HDL-C), non-high-density lipoprotein cholesterol (non-HDL-C), remnant-like particle cholesterol (RLP-C), fasting glucose, insulin, free fatty acids and hemoglobin A1C (HbA1C). Additional exploratory analysis included high throughput lipidomics and proteomics.
(§3) The study was planned to include 96 evaluable patients with 32 patients randomized per treatment group.
Clinical Laboratory Safety Tests: Safety tests were performed for hematology, serum biochemistry, coagulation, lipid profile, and urinalysis: Blood and urine samples were taken as per the Study Flow Chart in Table 19 for routine hematology, serum biochemistry, coagulation and urinalysis tests, along with a Lipid Profile. All samples were analyzed in the central laboratory. All subjects were fasted for a minimum of 8 hours prior to blood sampling. If subjects had not fasted for a minimum of 8 hours, the duration of fasting time was recorded, and subjects encouraged to fast appropriately for the next clinical visit. • Hematology: Full blood count to include red cell count, hemoglobin, hematocrit, white cell count, differential white cell count, platelet count and reticulocyte count. • Serum biochemistry: Urea (blood urea nitrogen; BUN), creatinine, uric acid, total bilirubin, Indirect and Direct Bilirubin, sodium, bicarbonate potassium, phosphorus, calcium chloride, alkaline phosphatase (ALP), aspartate aminotransferase (AST), alanine aminotransferase (ALT), ALT/AST ratio, lactate dehydrogenase (LDH), creatine phosphokinase (CPK), albumin, total protein, cholesterol, triglycerides, glucose, C-reactive protein (CRP). • Coagulation: prothrombin time (PT), international normalized ratio (INR) and activated partial […]. • Lipid Profile: LDL, HDL, and VLDL-C. • Urinalysis: pH, protein, glucose, blood, ketones, leukocytes, leukocyte esterase, bilirubin, specific gravity, urobilinogen and nitrate. Reflex micro if blood, protein, leukocyte esterase or nitrate/nitrite are present.

NAFLD patients [3] = experiment: Phase IIa NAFLD study: alkaline phosphate (ALP); type: in vivo, human; settings: 2 g
Procedure: as §3
Clinical Laboratory Safety Tests: Safety tests were performed for hematology, serum biochemistry, coagulation, lipid profile, and urinalysis: Blood and urine samples were taken as per the Study Flow Chart in Table 19 for routine hematology, serum biochemistry, coagulation and urinalysis tests, along with a Lipid Profile. All samples were analyzed in the central laboratory. All subjects were fasted for a minimum of 8 hours prior to blood sampling. […]

caveolin-1 = experiment: Sucrose density gradient analysis in Mv1Lu cells, caveolin-1; type: cell-based, mink; settings: 100 μM, 0, 1, 4 and 24 hours
Procedure: as §1

NAFLD patients [4] = experiment: Phase IIa NAFLD study: metabolic parameters and insulin resistance; type: in vivo, human
Procedure: as §3
HOMA-IR/Adipo-IR: HOMA-IR/Adipo-IR levels are a method of measuring insulin resistance. HOMA-IR is calculated by multiplying fasting plasma insulin (FPI) by fasting plasma glucose (FPG), then dividing by the constant 405. Adipo-IR is calculated by multiplying fasting non-esterified fatty acids (NEFA)×fasting insulin. Blood samples were taken to assess HOMA-IR and Adipo-IR at Visit 2/Baseline, Visit 3/Week 2, Visit 4/Week 4, Visit 6/Week 8, Visit 8/Week 12, Visit 10/Week16 and Follow up Visit 11/Week 20. All subjects were required to have been fasted for a minimum of 8 hours prior to blood sampling. If subjects had not fasted for a minimum of 8 hours, the duration of fasting time was recorded, and subjects encouraged to fast appropriately for the next clinical visit.
as §2

[5] = NAFLD patients, 1 g or 2 g per day
[6] = baseline to Week 16, 1 g or 2 g per day vs placebo

## CC/C=C\CC(O)/C=C/C=C\C/C=C\C/C=C\CCCC(=O)O (centres unmarked) [DS102, 15-hydroxy-eicosa-5Z,8Z,11Z,13E,17Z-pentaenoic acid]
[1]
  localization and abundance of EGFR: did not change the localization and abundance
NAFLD patients [2]; Week 16, Full Analysis Set
  Triglycerides (median placebo-corrected % change from baseline): −40.2%
NAFLD patients [2]; Week 16, Subgroup: High Triglycerides (>200 mg/dL)
  Triglycerides (median placebo-corrected % change from baseline): −20.4%
NAFLD patients [2]; Week 16, Subgroup: Triglycerides > Upper Limit Normal (>150 mg/dL)
  Triglycerides (median placebo-corrected % change from baseline): −39.0%
NAFLD patients [2]; NAFLD patients, Week 16
  triglyceride levels: lowered
NAFLD patients [2]; Week 16, safety analysis set (SAS)
  lipid profile (total cholesterol, VLDL-C, non-HDL-C, RLP cholesterol, triglyceride levels): significantly improved
NAFLD patients [3]
  alkaline phosphate (ALP): reduced
caveolin-1
  localization and abundance of caveolin-1: did not change the localization and abundance
NAFLD patients [4]; [5]
  insulin sensitivity and glycemic control: improvement
  markers of metabolic overload: statistically significant reduction
NAFLD patients [4]; Week 16, 1 g or 2 g per day vs placebo
  insulin resistance indices (HOMA-IR and adipo-IR levels): reduction in HOMA-IR and adipo-IR levels
NAFLD patients [4]; Week 16, 2 g, Per Protocol Set (PPS)
  insulin resistance indices (HOMA-IR and adipo-IR levels): significant improvements
NAFLD patients [4]; [6]
  HbA1c levels, glycemic control: clinically significant improvements
  insulin, glucose, and free fatty acid levels: reduction
